Measurements as given in US9296755B2, “3,4-dihydro-1H-pyrimido[1,6-a]pyrimidin-6(2H)-one compounds and their therapeutic applications” (GlaxoSmithKline Intellectual Property Development Limited, priority 2013, dated 2016).

How the values were obtained:
[1] = biological target: T1, recombinant human Lp-PLA2 (Homo sapiens, UniProt Q13093); test: Recombinant human Lp-PLA2 assay (rhLp-PLA2, PED6 assay); assay type: biochemical; details: recombinant human Lp-PLA2, PED6 substrate; read-out: rhLp-PLA2 (PED6 assay) (pIC50) (converted)
T1 sequence (Q13093 22-441): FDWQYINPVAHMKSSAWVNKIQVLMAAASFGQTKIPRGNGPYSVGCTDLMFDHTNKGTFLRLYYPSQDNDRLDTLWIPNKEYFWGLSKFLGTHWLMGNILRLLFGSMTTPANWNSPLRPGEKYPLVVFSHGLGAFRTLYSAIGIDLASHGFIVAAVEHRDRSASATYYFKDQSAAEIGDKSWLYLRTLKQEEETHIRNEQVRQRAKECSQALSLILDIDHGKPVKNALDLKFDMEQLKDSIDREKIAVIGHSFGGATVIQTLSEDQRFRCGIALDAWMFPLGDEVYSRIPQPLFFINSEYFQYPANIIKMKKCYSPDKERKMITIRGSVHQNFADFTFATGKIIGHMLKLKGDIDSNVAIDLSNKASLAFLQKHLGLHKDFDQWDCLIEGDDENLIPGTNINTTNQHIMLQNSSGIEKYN
Text: (1) Recombinant Human Lp-PLA2 Assay (rhLp-PLA2) (Also Referred to as “PED6” Assay)
N-((6-(2,4-dinitrophenyl)amino)-hexanoyl)-2-(4,4-difluoro-5,7-dimethyl-4-bora-3a,4a-diaza-s-indacene-3-pentanoyl)-1-hexadecanoyl-sn-glycero-3-phosphoethanolamine, triethylammonium salt (PED6) is a commercially available fluorescently-labeled phospholipid, which is commercially available from Invitrogene and Molecular Probes. There is a quenching […] and a Bodipy fluorescein (FL) group in the sn2 position. Upon cleavage with Lp-PLA2, the Bodipy FL group is liberated and then may result in an increase in fluorescence. Inhibitors of Lp-PLA2 therefore prevent this cleavage and no fluorescent increase is observed.
The PED6 assay was run as an unquenched 10 μL assay. The source plate containing the compounds to be tested was prepared by making 1:3 (by volume) serial dilution of the compounds within DMSO on 384-well microplate. Then, 0.01 μL of the compounds on compound source plate were transferred into 384 well Greiner 784076 (black) plates using ECHO liquid dispenser. 5 μL of recombinant human Lp-PLA2 enzyme (4 nM (or 110 pM) rhLp-PLA2 in assay buffer of 50 mM HEPES, pH 7.4, 150 mM NaCl, 1 mM CHAPS) was added to each well of the plate. Plates were centrifuged for 10 sec at 500 rpm. After 30 minutes preincubation, 5 μL of substrate (4 μM (or 5 μM) PED6 [from 5 mM DMSO stock] in assay buffer of 50 mM HEPES, pH 7.4, 150 mM NaCl, 1 mM CHAPS) was added to 384 well Greiner 784076 (black) plates. Plates were centrifuged for 10 sec at 500 rpm. The plate was covered to protect it from light and incubated for 20 min at room temperature. The plates were read for fluorescence intensity at ex: 480/em: 540 using ViewLux microplate imager for Envision spectrofluroimeters. PIC50 data, curve and QC analysis was conducted by using XL fit module in Excel.

[2] = biological target: T2, Lp-PLA2 in human plasma (Homo sapiens, UniProt Q13093); test: Lp-PLA2 human plasma assay (Thio-PAF assay); assay type: biochemical; details: pooled human plasma; read-out: pIC50 in the thio-PAF assay (converted)
T2 construct: from tissue; host or cells: pooled human plasma
T2 sequence (Q13093 22-441): T1 sequence (Q13093 22-441)
Text: (3) Lipoprotein-Associated Phospholipase A2 (Lp-PLA2) Human Plasma Assay (Also Referred to as “Thio-PAF Assay”)
The human plasma assay utilizes a thioester analog of PAF (phosphatidylcholine), where hydrolysis yields to the formation of a phospholipid containing a free thiol group. The amount of thiol is quantitated continuously by reacting with CPM (7-diethylamino-3-(4′-maleimidylphenyl)-4-methylcoumarin), a maleimide which increases in fluoresence after Michael addition of thiols. This assay may detect the activity of Lp-PLA2 in human plasma, as determined by specific inhibition by Lp-PLA2 inhibitors.
The thio-PAF assay was run as a quenched 15 μL assay. Compounds source plate was prepared by making 1:3 (by volume) serial dilution of the compounds into pure DMSO on 384-well microplate. 0.01 μL of compounds on compound source plate were transferred to 384 well Greiner 784076 (black) low-volume plates by ECHO liquid dispenser. 8 μL pooled human plasma, which was previously aliquoted and frozen, was added. Plates were centrifuged for 10 sec at 500 rpm. After 30 minutes preincubation, 2 μL of substrate solution comprising 2.5 mM 2-thio-PAF [from ethanol stock], 32 μM CPM [from a DMSO stock] and 3.2 mM NEM (N-ethylmaleimide) [made fresh daily in DMSO] in assay buffer of 50 mM HEPES, pH 7.4, 150 mM NaCl, 1 mM CHAPS was added to 384 well Greiner 784076 (black) low-volume plates by BRAVO liquid handling station. After 2 mins, reaction was quenched with 5 μL of 5% aqueous trifluoroacetic acid (TFA). Plates were covered to protect from light and incubated for 40 min at room temperature. Plates were read at ex: 380/em: 485 using Envision microplate reader. PIC50 data, curve and QC analysis were conducted by using XLFit module in Excel.

SMILES	IC50 [1] [nM]	IC50 [2] [nM]
O=C(CN1CCCn2c1cc(OCc1cc(F)c(F)c(F)c1)nc2=O)N1CCOCC1 [Example E16, 1-(2-morpholino-2-oxoethyl)-8-((3,4,5-trifluorobenzyl)oxy)-3,4-dihydro-1H-pyrimido[1,6-a]pyrimidin-6(2H)-one]	0.501	≤ 100
O=c1nc(OCc2ccc(Oc3ccc(Cl)c(C(F)(F)F)c3)c(F)c2)cc2n1CCCN2C1CC1 [Example E8, 8-((4-(4-chloro-3-(trifluoromethyl)phenoxy)-3-fluorobenzyl)oxy)-1-cyclopropyl-3,4-dihydro-1H-pyrimido[1,6-a]pyrimidin-6(2H)-one]	0.501	≤ 100
N#Cc1cc(COc2cc3n(c(=O)n2)CCCN3C2CC2)ccc1Oc1ccc(Cl)c(C(F)(F)F)c1 [Example E11, 2-(4-chloro-3-(trifluoromethyl)phenoxy)-5-(((1-cyclopropyl-6-oxo-2,3,4,6-tetrahydro-1H-pyrimido[1,6-a]pyrimidin-8-yl)oxy)methyl)benzonitrile]	0.794	≤ 100
CNC(=O)CN1CCCn2c1cc(OCc1ccc(F)c(F)c1)nc2=O [Example E17]	–	≤ 100
COc1cccc(CN2CCCn3c2cc(OCc2ccc(F)c(F)c2)nc3=O)c1 [Example E6, 8-((3,4-difluorobenzyl)oxy)-1-(3-methoxybenzyl)-3,4-dihydro-1H-pyrimido[1,6-a]pyrimidin-6(2H)-one]	1.58	≤ 100
O=C(CN1CCCn2c1cc(OCc1ccc(F)c(F)c1)nc2=O)N1CCCC1 [Example E18, 8-((3,4-difluorobenzyl)oxy)-1-(2-oxo-2-(pyrrolidin-1-yl)ethyl)-3,4-dihydro-1H-pyrimido[1,6-a]pyrimidin-6(2H)-one]	–	≤ 100
CCCNC(=O)CN1CCCn2c1cc(OCc1ccc(F)c(F)c1)nc2=O [Example E13, 2-(8-((3,4-difluorobenzyl)oxy)-6-oxo-2,3,4,6-tetrahydro-1H-pyrimido[1,6-a]pyrimidin-1-yl)-N-propylacetamide]	3.16	≤ 100
O=c1nc(OCc2ccc(F)c(F)c2)cc2n1CCCN2Cc1ccc(F)cc1 [Example E3, 8-((3,4-difluorobenzyl)oxy)-1-(4-fluorobenzyl)-3,4-dihydro-1H-pyrimido[1,6-a]pyrimidin-6(2H)-one]	–	≤ 100
O=c1nc(OCc2ccc(F)c(F)c2)cc2n1CCCN2Cc1ccccc1 [Example E1, 1-benzyl-8-((3,4-difluorobenzyl)oxy)-3,4-dihydro-1H-pyrimido[1,6-a]pyrimidin-6(2H)-one]	–	≤ 100
O=c1nc(OCc2ccc(F)c(F)c2)cc2n1CCCN2Cc1ccc(Cl)cc1 [Example E2, 1-(4-chlorobenzyl)-8-((3,4-difluorobenzyl)oxy)-3,4-dihydro-1H-pyrimido[1,6-a]pyrimidin-6(2H)-one]	0.631	–
O=c1nc(OCc2ccc(Oc3cccc(C(F)(F)F)c3)c(F)c2)cc2n1CCCN2C1CC1 [Example E9, 1-cyclopropyl-8-((3-fluoro-4-(3-(trifluoromethyl)phenoxy)benzyl)oxy)-3,4-dihydro-1H-pyrimido[1,6-a]pyrimidin-6(2H)-one]	–	≤ 100
O=C(CN1CCCn2c1cc(OCc1cc(F)c(F)c(F)c1)nc2=O)N1CCCC1 [Example E14, 1-(2-oxo-2-(pyrrolidin-1-yl)ethyl)-8-((3,4,5-trifluorobenzyl)oxy)-3,4-dihydro-1H-pyrimido[1,6-a]pyrimidin-6(2H)-one]	–	≤ 100
COc1ccc(CN2CCCn3c2cc(OCc2ccc(F)c(F)c2)nc3=O)cc1 [Example E4, 8-((3,4-difluorobenzyl)oxy)-1-(4-methoxybenzyl)-3,4-dihydro-1H-pyrimido[1,6-a]pyrimidin-6(2H)-one]	1	≤ 100

The next lines start with the values.

IC50 [1] [nM]	IC50 [2] [nM]	SMILES
0.316	≤ 100	CN1CCN(C(=O)CN2CCCn3c2cc(OCc2ccc(F)c(F)c2)nc3=O)CC1 [Example E19, 8-((3,4-difluorobenzyl)oxy)-1-(2-(4-methylpiperazin-1-yl)-2-oxoethyl)-3,4-dihydro-1H-pyrimido[1,6-a]pyrimidin-6(2H)-one]
–	≤ 100	O=C(CN1CCCn2c1cc(OCc1ccc(F)c(F)c1)nc2=O)N1CCCCC1 [Example E21, 8-((3,4-difluorobenzyl)oxy)-1-(2-oxo-2-(piperidin-1-yl)ethyl)-3,4-dihydro-H-pyrimido[1,6-a]pyrimidin-6(2H)-one]
0.2	≤ 100	O=C(CN1CCCn2c1cc(OCc1ccc(F)c(F)c1)nc2=O)N1CCC(F)(F)CC1 [Example E20, 8-((3,4-difluorobenzyl)oxy)-1-(2-(4,4-difluoropiperidin-1-yl)-2-oxoethyl)-3,4-dihydro-1H-pyrimido[1,6-a]pyrimidin-6(2H)-one]
0.794	≤ 100	O=C(CN1CCCn2c1cc(OCc1ccc(F)c(F)c1)nc2=O)N1CCOCC1 [Example E22, 8-((3,4-difluorobenzyl)oxy)-1-(2-morpholino-2-oxoethyl)-3,4-dihydro-H-pyrimido[1,6-a]pyrimidin-6(2H)-one]
–	≤ 100	CCCNC(=O)CN1CCCn2c1cc(OCc1cc(F)c(F)c(F)c1)nc2=O [Example E24, 2-(6-oxo-8-((3,4,5-trifluorobenzyl)oxy)-2,3,4,6-tetrahydro-1H-pyrimido[1,6-a]pyrimidin-1-yl)-N-propylacetamide]
0.794	≤ 100	O=C(CN1CCCn2c1cc(OCc1ccc(F)c(F)c1)nc2=O)N1CCC(F)CC1 [Example E23, 8-((3,4-difluorobenzyl)oxy)-1-(2-(4-fluoropiperidin-1-yl)-2-oxoethyl)-3,4-dihydro-1H-pyrimido[1,6-a]pyrimidin-6(2H)-one]
